Laboratory results reported in patent publication EP3539977B1, “ENZYMES WITH CHLOROGENIC ACID ESTERASE ACTIVITY AND FERULOYL ESTERASE ACTIVITY” (SternEnzym GmbH & Co. KG, priority 2014, dated 2016).
Values joined by “and” are separate entries in the source; they are usually repeats but may differ in a detail not shown here. Equal values may be shown once.

What was measured:
UmChlE [1] = biological target: T1, UmChlE (Mycosarcoma maydis, UniProt A0A060S684, P492L); experiment: Kinetic parameters of UmChlE from initial hydrolysis rates; format: biochemical, Ustilago maydis; settings: 0.005 - 1 mM substrate, 60 min, 37 °C, pH 7.5
T1 construct: purification of the chlorogenic acid esterase UmChlE from culture supernatant of U. maydis was accomplished by three complementary separation steps; made in house; host or cells: Ustilago maydis itself (native producer), culture supernatant; Q Sepharose FF, preparative IEF, polyamide column
T1 sequence (A0A060S684 22-585, stated change not applied): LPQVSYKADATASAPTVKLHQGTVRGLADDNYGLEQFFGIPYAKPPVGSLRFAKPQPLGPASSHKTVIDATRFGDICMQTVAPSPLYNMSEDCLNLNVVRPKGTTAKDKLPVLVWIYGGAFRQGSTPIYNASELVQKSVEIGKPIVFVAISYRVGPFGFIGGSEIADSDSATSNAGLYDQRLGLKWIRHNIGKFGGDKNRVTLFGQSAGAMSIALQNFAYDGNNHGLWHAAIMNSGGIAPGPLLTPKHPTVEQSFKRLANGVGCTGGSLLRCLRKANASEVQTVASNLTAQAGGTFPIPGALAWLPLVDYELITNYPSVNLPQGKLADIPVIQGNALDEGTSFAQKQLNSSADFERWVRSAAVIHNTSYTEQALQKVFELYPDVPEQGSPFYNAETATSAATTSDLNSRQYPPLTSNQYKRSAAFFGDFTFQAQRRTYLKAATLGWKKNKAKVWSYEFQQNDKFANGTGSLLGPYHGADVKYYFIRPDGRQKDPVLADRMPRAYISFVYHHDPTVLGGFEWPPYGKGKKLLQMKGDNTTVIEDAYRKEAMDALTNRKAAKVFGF
Procedure: (§1) Km and vmax values were calculated with non-linear regression using SigmaPlot 10.0 (Systat Software Inc., Chicago, USA). Blanks were carried out for all assays using water instead of enzyme. For calculation of kcat the molecular mass was determined using denaturing SDS-PAGE.
Kinetic properties were determined from initial hydrolysis rates for the most preferred substrates chlorogenic acid, MFA and MpCA. […] Consequently, the catalytic efficiency (kca/Km), a good indicator for enzyme efficiency and specificity, was better for chlorogenic acid than for the two synthetic substrates.

[2] = system: FAE of Penicillium expansum; settings: literature (42); cited from earlier work
UmChlE [3] = biological target: T1, UmChlE; format: biochemical, Ustilago maydis; settings: 1 mM (or 1.95 mM) substrate, 1 h, 37 °C, 50 mM Tris pH 7.5; ND = activity not detectable
Procedure: (§2) Chlorogenic acid esterase activity was determined at 37 °C in 50 mM Tris buffer at pH 7.5 using chlorogenic acid and methyl ferulate as standard substrates, unless otherwise stated. The release of the corresponding free acids was analyzed with HPLC-UV. If appropriate, the hydrolysis of other benzoic and cinnamic acid ester derivatives as well as feruloylated saccharides was measured with the same method. After incubation for one hour the reaction was terminated by doubling the reacting volume with acetonitrile. Samples were centrifuged (15 min, 15.000 × g) before injection to the HPLC (Chromolith Performance RP-18e reverse-phase column, 100 × 4.6 mm, Merck, Darmstadt, Germany). […] Substance elution was detected at 232 nm (benzoic and 3-hydroxybenzoic acid), 254 nm (4-hydroxybenzoic and vanillic acid), 275 nm (cinnamic and gallic acid), 306 nm (p-coumaric acid) and 323 nm (ferulic, caffeic, chlorogenic and sinapic acid) using a Shimadzu UV-Vis detector (SPD-10A VP, Shimadzu Deutschland GmbH, Duisburg, Germany). One unit of enzyme activity was defined as the amount of enzyme releasing one µmοl of free acid per minute under the specified conditions. All measurements were performed at least twice.
Substrate specificity of the UmChlE was determined towards different cinnamate and benzoate esters as well as natural substrates, such as F-A, F-AX and F-AXG, with activity assays as described above. Three mM stock solutions of all substrates were prepared in water.
Purified UmChlE was incubated with 1 mM, or, in a further experiment, 1.95 mM of different substrates for 1 h (at 37 °C, 50 mM Tris buffer pH 7.5). Relative enzyme activities were calculated based on the most preferred substance of the UmChIE: chlorogenic acid which was set to 100 %. Numbers in parentheses are the estimates of the standard error.

RsChlE = biological target: T2, RsChlE (Rhizoctonia solani, UniProt A0A1D0BQV8); experiment: Substrate specificity of purified RsChlE; format: biochemical; settings: 1 mM (or 1.95 mM) substrate, 1 h, 30 °C, 50 mM Bis-Tris pH 6.0
T2 sequence (A0A1D0BQV8 39-563): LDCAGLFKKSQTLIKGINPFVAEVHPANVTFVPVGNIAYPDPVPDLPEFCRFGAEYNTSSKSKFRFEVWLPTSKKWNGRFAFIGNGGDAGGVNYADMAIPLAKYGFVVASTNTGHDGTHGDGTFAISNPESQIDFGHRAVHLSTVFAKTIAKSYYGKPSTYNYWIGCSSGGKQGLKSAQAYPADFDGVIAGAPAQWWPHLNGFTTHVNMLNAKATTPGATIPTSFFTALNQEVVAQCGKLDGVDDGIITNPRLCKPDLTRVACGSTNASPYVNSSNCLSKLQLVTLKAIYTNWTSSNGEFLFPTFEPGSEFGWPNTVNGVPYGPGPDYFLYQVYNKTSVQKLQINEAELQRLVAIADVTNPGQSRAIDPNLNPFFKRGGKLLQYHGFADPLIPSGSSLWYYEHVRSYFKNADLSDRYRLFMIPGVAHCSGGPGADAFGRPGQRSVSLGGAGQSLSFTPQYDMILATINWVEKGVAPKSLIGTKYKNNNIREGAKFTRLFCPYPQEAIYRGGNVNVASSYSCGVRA
Procedure: as §2
(§3) After purification of the recombinant RsChlE from the culture supernatant of Pichia pastoris with Ni-NTA, the enzyme was biochemically characterized. The experiments were performed like for UmChlE. pH and temperature optimums were analyzed. […] Table 4: Substrate specificity of purified RsChIE.
Purified RsChlE was incubated with 1 mM, or in an alternative experiment, 1.95 mM of different substrates for 1 h (at 30 °C, 50 mM Bis-Tris buffer pH 6.0). […] Numbers in parentheses are the estimates of the standard error.

[4] = biological target: T3, type B feruloyl esterase from N. crassa (Neurospora crassa, UniProt Q9HGR3); settings: literature (35); cited from earlier work
T3 sequence (Q9HGR3 19-292): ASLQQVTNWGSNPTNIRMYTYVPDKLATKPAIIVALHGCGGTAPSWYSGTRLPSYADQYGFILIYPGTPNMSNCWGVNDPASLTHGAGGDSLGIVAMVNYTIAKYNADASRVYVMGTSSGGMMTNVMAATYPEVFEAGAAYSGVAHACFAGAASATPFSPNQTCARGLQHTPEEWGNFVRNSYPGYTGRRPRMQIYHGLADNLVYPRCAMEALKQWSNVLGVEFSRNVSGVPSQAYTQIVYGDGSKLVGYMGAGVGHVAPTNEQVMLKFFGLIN

[5] = system: second published chlorogenic acid hydrolases from A. niger; settings: literature (11); cited from earlier work
[6] = biological target: T4, chlorogenic acid hydrolases from A. niger (Aspergillus niger, UniProt A7YN26); settings: literature (13, 14); cited from earlier work
T4 sequence (A7YN26 19-512): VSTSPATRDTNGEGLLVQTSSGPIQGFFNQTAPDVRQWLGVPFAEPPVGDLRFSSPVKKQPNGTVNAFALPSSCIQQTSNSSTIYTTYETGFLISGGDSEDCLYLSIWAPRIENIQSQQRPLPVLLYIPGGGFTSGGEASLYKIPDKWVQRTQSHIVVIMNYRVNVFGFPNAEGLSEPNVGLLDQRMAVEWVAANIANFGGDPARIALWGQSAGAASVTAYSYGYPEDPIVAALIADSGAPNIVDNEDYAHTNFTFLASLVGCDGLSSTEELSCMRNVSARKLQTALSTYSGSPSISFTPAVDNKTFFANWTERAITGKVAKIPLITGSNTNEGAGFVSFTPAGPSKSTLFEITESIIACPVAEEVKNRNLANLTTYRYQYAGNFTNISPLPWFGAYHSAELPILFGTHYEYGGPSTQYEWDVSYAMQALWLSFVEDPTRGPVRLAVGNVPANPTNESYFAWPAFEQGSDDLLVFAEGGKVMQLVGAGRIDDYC

AoFaeB from A. oryzae = biological target: T5, AoFaeB from A. oryzae (Aspergillus oryzae, UniProt Q2UP89); settings: literature (19); cited from earlier work
T5 sequence (Q2UP89 19-540): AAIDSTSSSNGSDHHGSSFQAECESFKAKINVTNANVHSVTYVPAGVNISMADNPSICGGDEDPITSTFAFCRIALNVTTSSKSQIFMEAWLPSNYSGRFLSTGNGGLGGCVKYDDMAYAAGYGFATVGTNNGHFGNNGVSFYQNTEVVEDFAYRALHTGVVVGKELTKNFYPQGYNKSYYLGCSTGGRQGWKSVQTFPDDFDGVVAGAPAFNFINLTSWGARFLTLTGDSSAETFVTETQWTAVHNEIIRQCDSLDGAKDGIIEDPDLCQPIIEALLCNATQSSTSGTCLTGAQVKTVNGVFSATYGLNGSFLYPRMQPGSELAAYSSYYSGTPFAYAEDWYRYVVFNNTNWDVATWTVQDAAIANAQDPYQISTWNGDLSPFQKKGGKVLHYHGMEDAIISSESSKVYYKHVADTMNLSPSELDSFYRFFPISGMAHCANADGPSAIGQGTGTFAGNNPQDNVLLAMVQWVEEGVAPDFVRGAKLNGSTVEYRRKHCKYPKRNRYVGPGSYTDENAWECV

A. niger FAEB = A. niger FAEB (Aspergillus niger, UniProt Q8WZI8); settings: literature (34); cited from earlier work
Chain of A. niger FAEB (Q8WZI8 18-521): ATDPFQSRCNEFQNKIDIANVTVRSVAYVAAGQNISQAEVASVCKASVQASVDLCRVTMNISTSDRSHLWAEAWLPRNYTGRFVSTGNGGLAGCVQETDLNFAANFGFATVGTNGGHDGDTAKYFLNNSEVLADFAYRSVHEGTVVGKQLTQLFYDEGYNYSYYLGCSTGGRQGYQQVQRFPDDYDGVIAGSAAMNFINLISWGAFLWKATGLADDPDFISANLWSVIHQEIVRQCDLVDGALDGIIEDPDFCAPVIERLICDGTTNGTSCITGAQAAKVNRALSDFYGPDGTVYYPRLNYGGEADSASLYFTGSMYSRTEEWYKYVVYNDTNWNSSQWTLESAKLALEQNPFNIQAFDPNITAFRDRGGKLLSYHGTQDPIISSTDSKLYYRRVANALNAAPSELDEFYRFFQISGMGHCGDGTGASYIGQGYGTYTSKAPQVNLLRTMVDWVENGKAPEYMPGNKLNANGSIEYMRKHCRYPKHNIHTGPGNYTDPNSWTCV

UmChlE [7] = biological target: T1, UmChlE; format: biochemical, Ustilago maydis; settings: buffer (Tris pH 7.5) / organic solvent 1:1 (v/v), 0.7 mM methyl ferulate, 1 h, 37 °C, 900 rpm; without solvent = 100 %; standard error in parentheses; ND = activity not detectable
Procedure: as §2, with “twice. […]” for “twice.”

[8] = system: type B feruloyl esterases; settings: literature; cited from earlier work
[9] = substrate: COC(=O)/C=C/c1ccc(O)cc1; experiment: purified protein, by the assay type
[10] = substrate: COC(=O)/C=C/c1ccc(O)c(O)c1; experiment: Kinetic analysis of RsChlE; format: biochemical, Rhizoctonia solani
Procedure: as §1, §3
(§4) In the following, the kinetic constants were determined to decide if the enzyme has mainly chlorogenic acid esterase or feruloyl esterase activity. Table 5: kinetic analysis of RsChlE

[11] = substrate: COc1cc(/C=C/C(=O)OC[C@@H]2OC(O)[C@H](O[C@@H]3OC[C@@H](O)[C@H](O)[C@H]3O)[C@H]2O)ccc1O; experiment: Kinetic analysis of RsChlE; format: biochemical, Rhizoctonia solani
Procedure: as §1, §3, §4

[12] = substrate: O=C(/C=C/c1ccc(O)c(O)c1)O[C@@H]1C[C@](O)(C(=O)O)C[C@@H](O)[C@H]1O; experiment: Kinetic analysis of RsChlE; format: biochemical, Rhizoctonia solani
Procedure: as §1, §3, §4

In the case of `COC(=O)/C=C/c1ccc(O)c(OC)c1` [methyl ferulate], the kcat (UmChlE [1]) is given as 0.38 s⁻¹, the specific activities [2] is given as 14.4 U mg^-1 and the Specific esterase activity (UmChlE [3]) is given as 1.27 U mg^-1. The Specific activity (RsChlE) was 3.19 U/mg.

In the case of `O=C(/C=C/c1ccc(O)c(O)c1)O[C@@H]1C[C@](O)(C(=O)O)C[C@@H](O)[C@H]1O` [chlorogenic acid], the kcat (UmChlE [1]) is listed as 0.51 s⁻¹, the Km [4] is listed as 180 µM and the Km [5] is listed as 700 µM. For the same molecule, the Km [6] was 6.5 to 10 µM, the Specific esterase activity (UmChlE [3]) was 2.8 U mg^-1 and 2.76 U mg^-1 and the Km (AoFaeB from A. oryzae) was 630 µM. The Specific activity (RsChlE) was 5.15 U/mg and the Km (A. niger FAEB) was 245 µM.

With `CN(C)C=O` [DMF] the Relative esterase activity (UmChlE [7]) was 1 (0.76) %.

For `COC(=O)/C=C/c1ccc(O)cc1` [methyl p-coumarate], the Km [8] is given as 20 µM, the kcat (UmChlE [1]) is given as 0.49 s⁻¹ and the Specific esterase activity (UmChlE [3]) is given as 1.43 U mg^-1. For the same molecule, the Specific activity (RsChlE) was 6.19 U/mg.

In the case of `COc1cc(/C=C/C(=O)OC[C@@H]2OC(O)[C@H](O[C@@H]3OC[C@@H](O)[C@H](O)[C@H]3O)[C@H]2O)ccc1O` (stereo partly drawn) [F-AX, β-D-xylopyranosyl-(1→2)-5-O-trans-feruloyl-L-arabinofuranose], the specific activities [2] is given as 5.3 U mg^-1, the Specific esterase activity (UmChlE [3]) is given as 1.6 U mg^-1 and 1.63 U mg^-1 and the Specific activity (RsChlE) is given as 4.97 U/mg.

B1: RsChlE (Rhizoctonia solani) (protein)
chain: MGCDRPRQALHSLQEFTVMFSKWLPISAILLYGASAKALDCAGLFKKSQTLIKGINPFVAEVHPANVTFVPVGNIAYPDPVPDLPEFCRFGAEYNTSSKSKFRFEVWLPTSKKWNGRFAFIGNGGDAGGVNYADMAIPLAKYGFVVASTNTGHDGTHGDGTFAISNPESQIDFGHRAVHLSTVFAKTIAKSYYGKPSTYNYWIGCSSGGKQGLKSAQAYPADFDGVIAGAPAQWWPHLNGFTTHVNMLNAKATTPGATIPTSFFTALNQEVVAQCGKLDGVDDGIITNPRLCKPDLTRVACGSTNASPYVNSSNCLSKLQLVTLKAIYTNWTSSNGEFLFPTFEPGSEFGWPNTVNGVPYGPGPDYFLYQVYNKTSVQKLQINEAELQRLVAIADVTNPGQSRAIDPNLNPFFKRGGKLLQYHGFADPLIPSGSSLWYYEHVRSYFKNADLSDRYRLFMIPGVAHCSGGPGADAFGRPGQRSVSLGGAGQSLSFTPQYDMILATINWVEKGVAPKSLIGTKYKNNNIREGAKFTRLFCPYPQEAIYRGGNVNVASSYSCGVRA
In the case of B1, the Km [9] is reported as 35,8 µM, the Vmax [9] is reported as 26,5 U/mg and the kcat [9] is reported as 33,13 s^-1. The kcat/Km [9] was 925,28 mM * s^-1, the Km [10] was 28,5 µM and the Vmax [10] was 16 U/mg. For the same molecule, the kcat [10] was 20,00 s^-1, the Km [11] was 38,4 µM and the Vmax [11] was 23,3 U/mg. For the same molecule, the kcat [11] was 29,13 s^-1, the Km [12] was 18,3 µM and the Vmax [12] was 23,4 U/mg. For the same molecule, the kcat [12] was 29,25 s^-1.
